Test results reported in patent US11365215B2, “Method for preventing, improving, or treating inflammatory bowel disease” (Research & Business Foundation Sungkyunkwan University, priority 2015, dated 2022).
Peptide text beside a SMILES is read from it.

Key:
septicemia (CLP model) = test: Cecal ligation and puncture (CLP) septicemia model; type: in vivo; conditions: CLP mice; hypodermic 1 mg/kg, 2 hours after CLP, 12 hour intervals, three times
From the text: To confirm the effects of compound 1.1 (SEQ ID NO: 2) on septicemia, 10 mice in each group (7-week old, male) were anesthetized, and thereafter, the appendicies were exposed by incision of abdomen. The lower portion of ileocecal valve of the exposed appendix was tied and a single hole was made by using a 22 gage syringe needle. The treated appendix was reinserted into the abdominal cavity, and grafted using thread to obtain a septicemia-induced mice model (cecal ligation and pucture model, CLP model). Experimental methods were described in EMBO Mol Med. (2015) Mar. 12; 7(5):577-92, which is incorporated herein by reference.
Compound 1.1 (SEQ ID NO: 2) was hypodermically injected to the treated mice at dose of 1 mg/kg, after 2 hours from the CLP procedure, with 12 hour intervals, three times. As reference control, smaducin-6 was hypodermically injected at dose of 12 mg/kg as same method used for compound 1.1 (SEQ ID NO: 2). Survival rates of the mice from each group were measured (FIG. 29). Sham comparative group was not treated after incision of abdomen and anastomosis, CLP+PBS comparative group was treated with phosphate buffered saline (PBS) instead of drug compound after cecal ligation and puncture model was prepared. […]

[1] = test system: MAPK signaling pathway proteins (ERK1/2, JNK, p38); test: Western blot of MAPK signaling pathway protein phosphorylation in LPS-treated RAW 246.7 cells; type: cell-based; conditions: 100 nM for 30 minutes
Description: RAW 246.7 macrophage cells were pretreated with compound 1.1 (SEQ ID NO: 2), compound 1.2 and reference compound 1 (SEQ ID NO: 16) at a concentration of 100 nM for 30 minutes and then further treated with LPS for 0 hour, 0.5 hour, 1 hour and 2 hours. […] Changes of the concentration upon phosphorylation of each protein were measured by immunoblotting using anti-phosphorylation antibodies.
Specifically, RAW 246.7 macrophage cells were pretreated with DMSO, compound 1.1 (SEQ ID NO: 2) (100 nM), IRAK1/4 inhibitor (25 μM), and smaducin-6 (100 nM) for 30 minutes, and then further treated with LPS (100 ng/ml) for two hours.

[2] = test system: chemokines (CCL20, CCL2 and CX3CL1); test: Chemokine expression in large intestine tissues of DSS chronic colitis mice (Real-Time PCR); type: in vivo; conditions: oral 100 mg/kg daily for 10 days, sulfasalazine 500 mg/kg as comparison
Description: Meanwhile, as shown in FIGS. 11B-11D, mice suffering from chronic colitis induced by DSS were orally administered sulfasalazine in an amount of 500 mg/kg and compound 1.1 (SEQ ID NO: 2) in an amount of 100 mg/kg daily for 10 days. After 10 days of administration, large intestine tissues were obtained from the mice, and expression of chemokines (CCL20, CCL2 and CX3CL1) in the tissues was measured using real-time polymerase chain reaction (Real-Time PCR) as described above.

[3] = test system: inflammatory signaling pathway protein complex mediated by MyD88 or RIP1; test: Immunoprecipitation of inflammatory signaling pathway protein complex in LPS-treated RAW264.7 cells; type: cell-based; conditions: pretreated, then LPS
From the text: Specifically, using antibodies corresponding to proteins which relate to the formation of Toll-like receptors (TLRs) signaling pathway protein complex (for example, IRAK1, TRAF6, MyD88, RIP1 and Pellino-1), disruption of the formation of inflammatory signaling pathway protein complexes was affirmed by immunoprecipitation. As reference control, a relative amount of expression of β-actin from the total cell lysate was compared and presented using Western blot.
RAW264.7 macrophage cells were individually retreated with compound 1.1 (SEQ ID NO: 2) and compound 1.2, and smaducin-6, and further treated with LPS. These RAW264.7 macrophage cells were collected, lysed in a lysis butter (PBS containing 0.5% Triton X-100, 20 mM HEPES (pH 7.4), 150 mM NaCl, 12.5 mM β-glycerol phosphate, 1.5 mM MgCl2, 10 mM NaF, 2 mM DTT, 1 mM Na3O4V, 2 mM EGTA, and 1 mM Protease Inhibitor (PMSF)), and centrifuged at 13000 rpm for 10 minutes. For immunoprecipitation assays, the supernatant was incubated at 4° C. for 12 hours, with protein-A agarose beads and the antibodies corresponding to the above proteins, and the beads were subsequently washed three times with the lysis buffer. The immunoprecipitated substances were dissociated from the beads with addition of 2× sample buffer, and were boiled. The prepared samples were loaded on SDS-polyacrylamide gel (FIG. 7).

[4] = target: T1, inflammatory signaling pathway complex mediated by MyD88 and RIP1 (Mus musculus, UniProt P22366+Q60855); test: Immunoprecipitation/immunoblot of inflammatory signaling pathway complex in LPS-treated BMDM cells; type: cell-based; conditions: 100 pM, 1 nM, 100 nM, then 100 ng/mL LPS
T1 construct: endogenous in cells; host or cells: bone-marrow-derived macrophage (BMDM) cells
Description: Bone-marrow-derived macrophage (BMDM) cells were individually pretreated with compound 1.1 (SEQ ID NO: 2), reference compound 1 (SEQ ID NO: 16), and smaducin-6 at various concentrations of 100 pM, 1 nM, and 100 nM, and then further treated with 100 ng/mL of LPS.

T1 sequence (P22366 whole entry): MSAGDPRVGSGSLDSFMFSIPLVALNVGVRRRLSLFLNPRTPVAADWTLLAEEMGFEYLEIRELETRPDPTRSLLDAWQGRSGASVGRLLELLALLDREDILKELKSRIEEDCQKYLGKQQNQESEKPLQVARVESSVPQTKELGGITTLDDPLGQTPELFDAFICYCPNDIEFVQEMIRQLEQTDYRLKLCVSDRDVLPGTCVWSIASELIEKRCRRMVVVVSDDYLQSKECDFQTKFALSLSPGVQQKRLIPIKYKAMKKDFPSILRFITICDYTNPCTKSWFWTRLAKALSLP
T1 sequence (Q60855 whole entry): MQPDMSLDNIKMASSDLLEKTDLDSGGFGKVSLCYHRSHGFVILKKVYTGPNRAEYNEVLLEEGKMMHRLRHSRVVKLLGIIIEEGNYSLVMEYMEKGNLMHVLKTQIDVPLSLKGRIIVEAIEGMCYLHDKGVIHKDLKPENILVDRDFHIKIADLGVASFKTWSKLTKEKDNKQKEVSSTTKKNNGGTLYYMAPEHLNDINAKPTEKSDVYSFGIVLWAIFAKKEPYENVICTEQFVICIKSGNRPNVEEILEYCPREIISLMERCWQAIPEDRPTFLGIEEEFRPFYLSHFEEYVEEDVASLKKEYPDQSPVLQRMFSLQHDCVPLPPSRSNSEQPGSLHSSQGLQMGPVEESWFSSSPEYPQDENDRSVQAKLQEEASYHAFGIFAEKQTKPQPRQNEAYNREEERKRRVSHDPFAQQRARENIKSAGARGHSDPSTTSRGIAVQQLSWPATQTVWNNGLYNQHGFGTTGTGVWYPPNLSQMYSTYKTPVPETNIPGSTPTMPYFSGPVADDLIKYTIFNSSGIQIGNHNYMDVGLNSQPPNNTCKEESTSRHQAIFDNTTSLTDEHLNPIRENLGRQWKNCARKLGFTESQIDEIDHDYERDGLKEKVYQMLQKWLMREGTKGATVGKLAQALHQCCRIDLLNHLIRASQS

CCCCCCCCCCCCCCCC(=O)N1CCC[C@H]1C(=O)N1CCC[C@H]1C(=O)NCC(=O)N[C@@H](Cc1ccc(O)cc1)C(=O)O [compound 1.1, (S)-3-(4-hydroxyphenyl)-2-(2-((S)-1-((S)-1-palmitoylpyrrolidine-2-carbonyl)pyrrolidine-2-carboxamido)acetamido)propanoic acid] (HELM PEPTIDE1{[CCCCCCCCCCCCCCCC(=O)[*:2]].P.P.G.Y}$$$$V2.0)
survival rate (septicemia (CLP model)): 60% | phosphorylation of the MAPK signaling pathway proteins (ERK1/2, JNK, p38) ([1]; LPS 0, 0.5, 1 and 2 hours): did not inhibit phosphorylation | MAPK signaling pathway / phosphorylation of ERK, JNK, p38 ([1]; LPS 100 ng/ml two hours): neither suppressed MAPK signaling pathway nor inhibited phosphorylation of the proteins | expression of chemokines (CCL20, CCL2 and CX3CL1) in large intestine tissues [2]: effective chemokine blockers | formation of inflammatory signaling pathway protein complex mediated by MyD88 or RIP1 [3]: disrupted | formation of inflammatory signaling pathway complex mediated by MyD88 and RIP1 [4]: further disrupted in an increasing dose dependent manner
